In article PMC9483557, “Reisomerization of retinal represents a molecular switch mediating Na^+ uptake and release by a bacterial sodium-pumping rhodopsin” (The Journal of Biological Chemistry, 2022):

Target: T1, IaNaR (Indibacter alkaliphilus, UniProt S2D3K4)
T1 construct: gene A33Q_3728; C-terminal His tag, E. coli BL21, vector pKA001, DDM-solubilised, Ni-NTA purified, reconstituted in Egg-PC liposomes
T1 sequence (S2D3K4 1-279): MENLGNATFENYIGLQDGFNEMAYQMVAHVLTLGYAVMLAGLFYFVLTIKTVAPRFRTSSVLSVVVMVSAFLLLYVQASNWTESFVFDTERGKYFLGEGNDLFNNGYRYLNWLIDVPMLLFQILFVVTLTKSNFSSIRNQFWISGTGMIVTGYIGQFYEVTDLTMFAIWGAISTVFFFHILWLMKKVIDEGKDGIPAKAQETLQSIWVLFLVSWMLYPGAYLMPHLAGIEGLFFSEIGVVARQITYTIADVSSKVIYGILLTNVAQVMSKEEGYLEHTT
Assay: time-resolved cryo-Raman ([…] nm preresonance) and absorption spectroscopy
Format: binding
Details: covalent; protonated Schiff base to helix G lysine; dark state all-trans; humidified film, 268 K, pH 8.0, NaCl

`CC1=C(/C=C/C(C)=C/C=C/C(C)=C/C=O)C(C)(C)CCC1` [retinal] was tested, and the “time-resolved cryo-Raman (785 nm preresonance) and absorption spectroscopy” value was “the vibrational modes of the RSB chromophore were selectively observed due to the preresonance enhancement”.
